Test results as given in patent US20020107209A1, “Triterpene saponins from soybeans for treating kidney disease” (priority 2000, published 2002).

Experiments:
[1] = system: rodent models of polycystic kidney disease (PKD); assay: Casein-based diet supplemented with crude saponin-enriched alcohol extract (SEAE), ginseng, genistein or L-arginine; earlier experiment; type: in vivo, mice; conditions: supplementation of the casein-based diet
Source text: These beneficial effects appeared unique to the saponins derived from soybeans as supplementation of the casein-based diet with (1) ginseng (also a saponin), (2) genistein, (an isoflavone naturally present in SPI) or (3) addition of the amino acid L-arginine to the casein to mimic the amino acid composition to that of the SPI had no effect on disease progression.
The major component of the SEAE was identified as soyasaponin Bb with smaller amounts of two or three unidentified saponins and trace amounts of genistein and daidzen, two naturally occurring isoflavones in soy protein. The inventors determined that the Group B soybean-derived saponins (soyasaponins), especially soyasaponin Bb, was an important contributor to the attenuation of cyst growth.

[2] = system: pcy mouse model of PKD; assay: 90-day feeding trial in pcy mice: casein-based diet supplemented with Novasoy 400 or soyasaponin Bb concentrate; type: in vivo; conditions: for effect on attenuation of kidney size and cyst development: pcy mouse model of PKD, summary in words
Description: Experiments were conducted with a purified soyasaponin Bb concentrate for a feeding trial in the pcy mice.
The feeding trial, which followed the acquisition of this soyasaponin Bb concentrate, explored the possibility that this concentrate was an important contributor to the attenuation of disease progression in the pcy mouse. The protocol used in this trial involved the random assignment of young, male pcy mice to one of three dietary treatments and feeding these diets for 90 days, the usual time frame in these studies. The diets used in this feeding trial were:1) an unsupplemented casein-based diet, known to increase the severity of the renal cystic disease; 2) this casein-based diet supplemented with Novasoy 400®, a new, isoflavone-enhanced product containing low levels of the soyasaponins (ADM, Decatur, Ill.) or 3) the casein-based diet supplemented with the purified soyasaponin Bb concentrate prepared by Drs. Collins and Sarr.
After three months the mice were humanely euthanized and the kidney and liver tissues removed and stored at −80 degrees Celsius until measurements of tissue water content and cell volume could be taken. Organ water content was determined in the kidney and liver by measuring the difference between the wet weight of the tissue and its subsequent weight after freeze-drying. Plasma, obtained by centrifugation of the cardiac blood, was used for standard measurements of renal function, including total protein, urea, and creatinine concentrations. Soy protein fractions enriched in the soyasaponins are reportedly hypocholesterolemic when fed to hamsters (Gatchalian-Yee M. et al. Nutrition. 13:633-639,1997) and plasma cholesterol levels were also measured in the present experiment whenever the sample volume was adequate. Differences between treatment effects were assessed by a one-way ANOVA and the significance of these differences between means obtained by the Tukey's Honestly Significant Different Test.

[3] = pcy mice, 90 days, plasma from cardiac blood, mean ± SEM
[4] = pcy mice, 90 days, versus casein
[5] = pcy mice, 90 days, versus unsupplemented casein diet
[6] = pcy mice, diet fed 90 days, mean ± SEM
[7] = pcy mice, diet fed 90 days, mean ± SEM, 8 animals/group

Structure (SMILES)	effect on disease progression [1]	daily food intake ([2]; pcy mice, 90-day feeding trial) [g/day]	Plasma cholesterol [2, 3] [mM/L]	Plasma creatinine [2, 3] [µM]	Plasma total protein [2, 3] [g/L]	Plasma urea [2, 3] [mM/L]	absolute and relative kidney weight and kidney water content [2, 4]	relative liver weight [2, 4]	plasma cholesterol levels [2, 5]	plasma creatinine levels [2, 5]	Kidney water content (g/left kidney) ([2]; pcy mice, 90 days, wet weight minus freeze-dried weight, mean ± SEM)	Final body wt [2, 6] [g]	Liver water content [2, 6] [g]	Liver wt [2, 6] [g]	Liver wt (g/100 g body wt) [2, 6] [g/100 g body wt]	Total kidney wt [2, 7] [g]	Total kidney wt (g/100 g body wt) [2, 7] [g/100 g body wt]	effect on attenuation of kidney size and cyst development [2]	effect on attenuation of kidney size and cyst development ([2]; listed as soyasaponin Bb concentrate)
N=C(N)NCCC[C@H](N)C(=O)O [L-arginine]	no effect	–	–	–	–	–	–	–	–	–	–	–	–	–	–	–	–	–	–
O=c1c(-c2ccc(O)cc2)coc2cc(O)cc(O)c12 [genistein]	no effect	–	–	–	–	–	–	–	–	–	–	–	–	–	–	–	–	–	–
C[C@@H]1O[C@@H](O[C@H]2[C@H](O[C@H]3[C@H](O[C@H]4CC[C@@]5(C)[C@@H](CC[C@]6(C)[C@@H]5CC=C5[C@@H]7CC(C)(C)C[C@@H](O)[C@]7(C)CC[C@]56C)[C@@]4(C)CO)O[C@H](C(=O)O)[C@@H](O)[C@@H]3O)O[C@H](CO)[C@H](O)[C@@H]2O)[C@H](O)[C@H](O)[C@H]1O [soyasaponin Bb, 3-O-(α-L-rhamnosyl-1→2-β-D-galactosyl-1→2-β-D-glucuronosyl)-soyasapogenol B]	–	3.3 ± 0.0	4.8 ± 0.3	17.5 ± 1.9	54.3 ± 1.1	19.5 ± 3.0	marked reduction	not observed	lesser hypocholesterolemic effect	markedly reduced	0.61 ± 0.1	25.1 ± 0.1	0.82 ± 0.0	1.2 ± 0.2	4.6 ± 0.1	1.3 ± 0.1	5.2 ± 0.3	important beneficial effect	marked beneficial effect
